From US10584104B2, “Carboxylic acid URAT1 inhibitor containing diarylmethane structure, preparation method and use thereof” (TIANJIN INSTITUTE OF PHARMACEUTICAL RESEARCH CO., LTD., priority 2015, dated 2020)
Read-outs that look alike come from different tables or passages of the source.

Legend:
URAT1 [1] = target: T1, URAT1 (Homo sapiens (Human), UniProt Q96S37); test: Inhibition of [8-14C] uric acid uptake by HEK293 cells stably expressing URAT1, test compounds at 10 μM; type: cell-based
Procedure: (I) Inhibitory Experiment of the Test Compounds at a Concentration of 10 μM on URAT1 After trypsin digestion, the expression cells (HEK293) stably expressing URAT1 gene and mock cells were all inoculated into lysine-coated 24-well culture plates, with the cell inoculation density being 1×10^5 cells/well, and cultured in incubator at 37° C., 5% CO2 and saturated humidity for 2 days. […] After 2 min, the reaction was terminated with ice-bathed DPBS buffer solution and washing was carried out for three times. […]
wherein, control=the intensity of radioactivity corresponding to the well without the test compound test compound=the intensity of radioactivity corresponding to the well with the test compound mock=the intensity of radioactivity corresponding to the well of blank cells untransfected with URAT1

URAT1 [2] = target: T1, URAT1; test: IC50 for inhibition of the test compounds on URAT1 (nine concentration points, 0.001-10 μM); settings: HEK293 cells stably expressing URAT1; [8-14C] uric acid uptake; nine concentrations 0.001-10 μM
[3] = 10 μM test compound, HEK293 cells stably expressing URAT1, 30 μM [8-14C] uric acid, 2 min, read-out: Inhibition rate (%)
[4] = 10 μM test compound, HEK293 cells stably expressing URAT1, 30 μM [8-14C] uric acid, 2 min
[5] = HEK293, read-out: Inhibition rate (%)

T1 sequence (Q96S37 whole entry): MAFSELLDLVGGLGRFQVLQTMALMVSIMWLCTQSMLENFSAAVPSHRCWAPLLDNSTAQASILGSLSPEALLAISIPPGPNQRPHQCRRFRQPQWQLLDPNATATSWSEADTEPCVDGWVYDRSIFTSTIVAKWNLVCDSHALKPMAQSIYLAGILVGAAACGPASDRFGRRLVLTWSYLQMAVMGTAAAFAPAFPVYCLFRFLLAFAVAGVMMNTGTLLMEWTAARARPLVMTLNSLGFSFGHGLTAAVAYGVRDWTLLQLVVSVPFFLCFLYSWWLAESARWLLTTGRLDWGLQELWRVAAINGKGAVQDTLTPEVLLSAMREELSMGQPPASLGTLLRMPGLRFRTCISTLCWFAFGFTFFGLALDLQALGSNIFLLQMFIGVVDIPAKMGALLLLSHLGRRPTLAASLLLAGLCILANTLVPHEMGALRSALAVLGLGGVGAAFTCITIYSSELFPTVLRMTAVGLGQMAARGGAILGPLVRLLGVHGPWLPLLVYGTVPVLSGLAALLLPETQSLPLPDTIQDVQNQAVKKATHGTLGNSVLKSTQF

Row | Compound | inhibition at 10 µM (URAT1 [1]; [3]) [%] | other results
1 | CCc1ccc(Cn2c(Br)nnc2CC(C)(C)C(=O)O)c2ccccc12 [Compound of Example 47] | 85 | 
2 | CC(C)(Cc1nnc(Br)n1Cc1ccc(C2CC2)c2ccccc12)C(=O)O [Compound of Example 41] | 94 | 
3 | CC(C)(Sc1nnc(Cl)n1Cc1ccc(C2CC2)c2ccccc12)C(=O)O [Compound of Example 20] | 86 | IC50 (URAT1 [2]): 886 nM
4 | CC(C)c1ccc(Cn2c(Br)nnc2SC(C)(C)C(=O)O)c2ccccc12 [Compound of Example 26] | 91 | 
5 | CCc1ccc(Cn2c(Br)nnc2SCC(=O)O)c2ccccc12 [Compound of Example 9] | 84 | 
6 | Cc1ccc(Cn2c(Br)nnc2SC(C)(C)C(=O)O)c2ccccc12 [Compound of Example 23] | 83 | 
7 | CC(C)(Cc1nnc(Br)n1Cc1ccc(C#N)c2ccccc12)C(=O)O [Compound of Example 50] | 92 | 
8 | O=C(O)CSc1nnc(Br)n1Cc1ccc(C2CC2)c2ccccc12 [Compound of Example 1] |  | Inhibition rate (%) (URAT1 [1]; [4]): 90%; IC50 (URAT1 [2]): 201 nM
9 | CC(C)(Sc1nnc(Br)n1-c1ccc(C2CC2)c2ccccc12)C(=O)O [Compound A, reference compound] |  | inhibition at 10 µM (URAT1 [1]; [5]): 55%
10 | O=C(O)CSc1nnc(I)n1Cc1ccc(C2CC2)c2ccccc12 [Compound of Example 6] | 78 | IC50 (URAT1 [2]): 440 nM
11 | CC(C)(Sc1nnc(Br)n1Cc1ccc(Cl)c2ccccc12)C(=O)O [Compound of Example 28] | 77 | 
12 | O=C(O)CCc1nnc(Cl)n1Cc1ccc(C2CC2)c2ccccc12 [Compound of Example 34] | 88 | 
13 | CC(C)(Sc1nnc(Br)n1Cc1ccc(C#N)c2ccccc12)C(=O)O [Compound of Example 29] | 89 | 
14 | CCCc1ccc(Cn2c(Br)nnc2CC(C)(C)C(=O)O)c2ccccc12 [Compound of Example 48] | 85 | IC50 (URAT1 [2]): 512 nM
15 | CC(C)c1ccc(Cn2c(Br)nnc2CCC(=O)O)c2ccccc12 [Compound of Example 39] | 92 | IC50 (URAT1 [2]): 381 nM
16 | CC(C)c1ccc(Cn2c(Br)nnc2CC(C)(C)C(=O)O)c2ccccc12 [Compound of Example 49] | 93 | IC50 (URAT1 [2]): 487 nM
17 | CC(C)(Sc1nnc(I)n1Cc1ccc(C2CC2)c2ccccc12)C(=O)O [Compound of Example 21] | 82 | 
18 | O=C(O)CCc1nnc(Br)n1Cc1ccc(C2CC2)c2ccccc12 [Compound of Example 2] |  | Inhibition rate (%) (URAT1 [1]; [4]): 91%; IC50 (URAT1 [2]): 193 nM
19 | CC(C)(Cc1nnc(Cl)n1Cc1ccc(C2CC2)c2ccccc12)C(=O)O [Compound of Example 44] | 81 | 
20 | O=C(O)CCc1nncn1Cc1ccc(C2CC2)c2ccccc12 [Compound of Example 32] | 67 | 
21 | O=C(O)CSc1nnc(Br)n1Cc1ccc([N+](=O)[O-])c2ccccc12 [Compound of Example 15] | 70 | 
22 | O=C(O)CSc1nnc(Br)n1Cc1cccc2ccccc12 [Compound of Example 7] | 83 | 
23 | O=C(O)CCc1nnc(I)n1Cc1ccc(C2CC2)c2ccccc12 [Compound of Example 35] | 84 | 
24 | COc1ccc(Cn2c(Br)nnc2SCC(=O)O)c2ccccc12 [Compound of Example 16] | 81 | 
25 | O=C(O)CCc1nnc(Br)n1-c1ccc(C2CC2)c2ccccc12 [Compound B, reference compound] |  | inhibition at 10 µM (URAT1 [1]; [5]): 50%

The next lines start with results.

Row | inhibition at 10 µM (URAT1 [1]; [3]) [%] | Compound | other results
26 | 75 | O=C(O)CSc1nnc(Br)n1Cc1ccc(Cl)c2ccccc12 [Compound of Example 13] | 
27 | 83 | Cc1ccc(Cn2c(Br)nnc2SCC(=O)O)c2ccccc12 [Compound of Example 8] | 
28 | 85 | CCCc1ccc(Cn2c(Br)nnc2SCC(=O)O)c2ccccc12 [Compound of Example 10] | IC50 (URAT1 [2]): 94 nM
29 | 76 | O=C(O)CSc1nnc(Cl)n1Cc1ccc(C2CC2)c2ccccc12 [Compound of Example 5] | IC50 (URAT1 [2]): 418 nM
30 | 93 | CC(C)(Sc1nnc(Br)n1Cc1ccc(C2CC2)c2ccccc12)C(=O)O [Compound of Example 17] | IC50 (URAT1 [2]): 1020 nM
31 | 84 | Cc1ccc(Cn2c(Br)nnc2CC(C)(C)C(=O)O)c2ccccc12 [Compound of Example 46] | 
32 | 82 | Cc1ccc(Cn2c(Br)nnc2CCC(=O)O)c2ccccc12 [Compound of Example 36] | 
33 | 93 | O=C(O)CCc1nnc(Br)n1Cc1ccc(Br)c2ccccc12 [Compound of Example 52] | IC50 (URAT1 [2]): 83 nM
34 | 81 | CC(C)(Sc1nnc(Br)n1Cc1ccc([N+](=O)[O-])c2ccccc12)C(=O)O [Compound of Example 30] | 
35 | 91 | CC(C)c1ccc(Cn2c(Br)nnc2SCC(=O)O)c2ccccc12 [Compound of Example 11] | IC50 (URAT1 [2]): 484 nM
36 | 62 | O=C(O)CSc1nnc(F)n1Cc1ccc(C2CC2)c2ccccc12 [Compound of Example 4] | 
37 | 82 | CC(C)(Cc1nnc(I)n1Cc1ccc(C2CC2)c2ccccc12)C(=O)O [Compound of Example 45] | 
38 | 60 | O=C(O)CSc1nncn1Cc1ccc(C2CC2)c2ccccc12 [Compound of Example 3] | 
39 | 84 | COc1ccc(Cn2c(Br)nnc2SC(C)(C)C(=O)O)c2ccccc12 [Compound of Example 31] | 
40 | 84 | CCc1ccc(Cn2c(Br)nnc2SC(C)(C)C(=O)O)c2ccccc12 [Compound of Example 24] | 
41 | 80 | CC(C)(Cc1nnc(F)n1Cc1ccc(C2CC2)c2ccccc12)C(=O)O [Compound of Example 43] | 
42 | 84 | CCc1ccc(Cn2c(Br)nnc2CCC(=O)O)c2ccccc12 [Compound of Example 37] | 
43 | 80 | CCCc1ccc(Cn2c(Br)nnc2SC(C)(C)C(=O)O)c2ccccc12 [Compound of Example 25] | IC50 (URAT1 [2]): 1010 nM
44 | 77 | CC(C)(Sc1nnc(Br)n1Cc1cccc2ccccc12)C(=O)O [Compound of Example 22] | 
45 | 83 | CC(C)(Sc1nnc(Br)n1Cc1ccc(F)c2ccccc12)C(=O)O [Compound of Example 27] | 
46 | 86 | CCCc1ccc(Cn2c(Br)nnc2CCC(=O)O)c2ccccc12 [Compound of Example 38] | IC50 (URAT1 [2]): 107 nM
47 | 71 | CC(C)(Cc1nncn1Cc1ccc(C2CC2)c2ccccc12)C(=O)O [Compound of Example 42] | 
48 | 68 | O=C(O)CCc1nnc(F)n1Cc1ccc(C2CC2)c2ccccc12 [Compound of Example 33] | 
49 | 78 | CC(C)(Sc1nncn1Cc1ccc(C2CC2)c2ccccc12)C(=O)O [Compound of Example 18] | 
50 | 92 | N#Cc1ccc(Cn2c(Br)nnc2CCC(=O)O)c2ccccc12 [Compound of Example 40] | 
51 | 76 | O=C(O)CSc1nnc(Br)n1Cc1ccc(F)c2ccccc12 [Compound of Example 12] | 
52 | 82 | CC(C)(Sc1nnc(F)n1Cc1ccc(C2CC2)c2ccccc12)C(=O)O [Compound of Example 19] | 
53 | 84 | N#Cc1ccc(Cn2c(Br)nnc2SCC(=O)O)c2ccccc12 [Compound of Example 14] | 
